Test results reported in patent publication US8410161B2, “Thioxanthone ring system derivatives” (National Defense Medical Center, priority 2010, dated 2013).

Columns and labels:
[1] = tested on: U251; test: NCI in vitro DTP human cell line screen, U251; assay type: cell-based; details: CNS Cancer, 1.00E−5 Molar
Description: (§1) Then, a cell toxicity assay of the cancer lines made by National Cancer Institute will be discussed as follows. The cell toxicity assay is performed by choosing ten compounds (existing certification numbers) from the 59 compounds disclosed in the present invention first.

[2] = tested on: MDA-MB-231/ATCC; test: NCI in vitro DTP human cell line screen, MDA-MB-231/ATCC; assay type: cell-based; details: Breast Cancer, 1.00E−5 Molar
Description: as §1

[3] = tested on: HCT-15; test: NCI in vitro DTP human cell line screen, HCT-15; assay type: cell-based; details: Colon Cancer, 1.00E−5 Molar
Description: as §1

[4] = tested on: RXF 393; test: NCI in vitro DTP human cell line screen, RXF 393; assay type: cell-based; details: Renal Cancer, 1.00E−5 Molar
Description: as §1

[5] = tested on: MCF7; test: NCI in vitro DTP human cell line screen, MCF7; assay type: cell-based; details: Breast Cancer, 1.00E−5 Molar
Description: as §1

[6] = MTT assay, HEL299 fibroblast; assay type: cell-based; details: human
Source text: Please refer to FIG. 4C, various cell viabilities of the HEL299 cell lines can be obtained through the MTT assay while the compounds No. 1˜30 are used to treat HEL299 cell lines, wherein HEL299 cell lines are fibroblast.

[7] = tested on: OVCAR-8; test: NCI in vitro DTP human cell line screen, OVCAR-8; assay type: cell-based; details: Ovarian Cancer, 1.00E−5 Molar
Description: as §1

[8] = tested on: EKVX; test: NCI in vitro DTP human cell line screen, EKVX; assay type: cell-based; details: Non-Small Cell Lung Cancer, 1.00E−5 Molar
Description: as §1

[9] = tested on: KM12; test: NCI in vitro DTP human cell line screen, KM12; assay type: cell-based; details: Colon Cancer, 1.00E−5 Molar
Description: as §1

[10] = tested on: HOP-92; test: NCI in vitro DTP human cell line screen, HOP-92; assay type: cell-based; details: Non-Small Cell Lung Cancer, 1.00E−5 Molar
Description: as §1

[11] = tested on: HCT-116; test: NCI in vitro DTP human cell line screen, HCT-116; assay type: cell-based; details: Colon Cancer, 1.00E−5 Molar
Description: as §1

[12] = tested on: UACC-62; test: NCI in vitro DTP human cell line screen, UACC-62; assay type: cell-based; details: Melanoma, 1.00E−5 Molar
Description: as §1

[13] = tested on: BT-549; test: NCI in vitro DTP human cell line screen, BT-549; assay type: cell-based; details: Breast Cancer, 1.00E−5 Molar
Description: as §1

[14] = tested on: A3 cell lines; test: MTT assay, A3 cell lines (lung cancer stem cell); assay type: cell-based
Source text: Please to FIG. 4B, various cell viabilities of the A3 cell lines can be obtained through the MTT assay and illustrated in FIG. 4B while the compounds No. 1˜30 are used to treat A3 cell lines, wherein A3 cell lines are lung cancer stem cell.

[15] = tested on: 60 cancer lines; test: NCI cell toxicity assay of 60 cancer lines, whole panel summary; assay type: cell-based, human; details: 1.00E−5 Molar
Description: as §1

[16] = tested on: SK-OV-3; test: NCI in vitro DTP human cell line screen, SK-OV-3; assay type: cell-based; details: Ovarian Cancer, 1.00E−5 Molar
Description: as §1

[17] = tested on: K562; test: NCI in vitro DTP human cell line screen, K562; assay type: cell-based; details: Leukemia, 1.00E−5 Molar
Description: as §1

[18] = tested on: SN12C; test: NCI in vitro DTP human cell line screen, SN12C; assay type: cell-based; details: Renal Cancer, 1.00E−5 Molar
Description: as §1

[19] = tested on: MDA-MB-468; test: NCI in vitro DTP human cell line screen, MDA-MB-468; assay type: cell-based; details: Breast Cancer, 1.00E−5 Molar
Description: as §1

[20] = tested on: CCRF-CEM; test: NCI in vitro DTP human cell line screen, CCRF-CEM; assay type: cell-based; details: Leukemia, 1.00E−5 Molar
Description: as §1

[21] = tested on: SF-295; test: NCI in vitro DTP human cell line screen, SF-295; assay type: cell-based; details: CNS Cancer, 1.00E−5 Molar
Description: as §1

[22] = tested on: UO-31; test: NCI in vitro DTP human cell line screen, UO-31; assay type: cell-based; details: Renal Cancer, 1.00E−5 Molar
Description: as §1

[23] = tested on: MOLT-4; test: NCI in vitro DTP human cell line screen, MOLT-4; assay type: cell-based; details: Leukemia, 1.00E−5 Molar
Description: as §1

[24] = tested on: OVCAR-4; test: NCI in vitro DTP human cell line screen, OVCAR-4; assay type: cell-based; details: Ovarian Cancer, 1.00E−5 Molar
Description: as §1

[25] = tested on: SR; test: NCI in vitro DTP human cell line screen, SR; assay type: cell-based; details: Leukemia, 1.00E−5 Molar
Description: as §1

[26] = tested on: MDA-MB-435; test: NCI in vitro DTP human cell line screen, MDA-MB-435; assay type: cell-based; details: Melanoma, 1.00E−5 Molar
Description: as §1

[27] = tested on: HT29; test: NCI in vitro DTP human cell line screen, HT29; assay type: cell-based; details: Colon Cancer, 1.00E−5 Molar
Description: as §1

[28] = tested on: NCI-H226; test: NCI in vitro DTP human cell line screen, NCI-H226; assay type: cell-based; details: Non-Small Cell Lung Cancer, 1.00E−5 Molar
Description: as §1

[29] = tested on: SW-620; test: NCI in vitro DTP human cell line screen, SW-620; assay type: cell-based; details: Colon Cancer, 1.00E−5 Molar
Description: as §1

[30] = tested on: CAKI-1; test: NCI in vitro DTP human cell line screen, CAKI-1; assay type: cell-based; details: Renal Cancer, 1.00E−5 Molar
Description: as §1

[31] = tested on: MALME-3M; test: NCI in vitro DTP human cell line screen, MALME-3M; assay type: cell-based; details: Melanoma, 1.00E−5 Molar
Description: as §1

[32] = tested on: NCI-H322M; test: NCI in vitro DTP human cell line screen, NCI-H322M; assay type: cell-based; details: Non-Small Cell Lung Cancer, 1.00E−5 Molar
Description: as §1

[33] = tested on: SK-MEL-28; test: NCI in vitro DTP human cell line screen, SK-MEL-28; assay type: cell-based; details: Melanoma, 1.00E−5 Molar
Description: as §1

[34] = tested on: SNB-19; test: NCI in vitro DTP human cell line screen, SNB-19; assay type: cell-based; details: CNS Cancer, 1.00E−5 Molar
Description: as §1

[35] = tested on: NCI-H522; test: NCI in vitro DTP human cell line screen, NCI-H522; assay type: cell-based; details: Non-Small Cell Lung Cancer, 1.00E−5 Molar
Description: as §1

[36] = tested on: HOP-62; test: NCI in vitro DTP human cell line screen, HOP-62; assay type: cell-based; details: Non-Small Cell Lung Cancer, 1.00E−5 Molar
Description: as §1

[37] = tested on: NCI-H23; test: NCI in vitro DTP human cell line screen, NCI-H23; assay type: cell-based; details: Non-Small Cell Lung Cancer, 1.00E−5 Molar
Description: as §1

[38] = tested on: SF-268; test: NCI in vitro DTP human cell line screen, SF-268; assay type: cell-based; details: CNS Cancer, 1.00E−5 Molar
Description: as §1

[39] = tested on: HL-60(TB); test: NCI in vitro DTP human cell line screen, HL-60(TB); assay type: cell-based; details: Leukemia, 1.00E−5 Molar
Description: as §1

[40] = tested on: COLO 205; test: NCI in vitro DTP human cell line screen, COLO 205; assay type: cell-based; details: Colon Cancer, 1.00E−5 Molar
Description: as §1

[41] = tested on: DU145; test: NCI in vitro DTP human cell line screen, DU145; assay type: cell-based; details: Prostate Cancer, 1.00E−5 Molar
Description: as §1

[42] = tested on: HCC-2998; test: NCI in vitro DTP human cell line screen, HCC-2998; assay type: cell-based; details: Colon Cancer, 1.00E−5 Molar
Description: as §1

[43] = tested on: A control cell lines; test: MTT assay, A control cell lines (lung cancer cell); assay type: cell-based
Source text: Please refer to Table 1 and FIGS. 4A-4C. According to a MTT assay (Table 1), various cell viabilities of the A control cell lines can be obtained and illustrated in FIG. 4A while the compounds No. 2˜30 are used to treat A control cell lines, wherein A control cell lines are lung cancer cell.

[44] = tested on: RPMI-8226; test: NCI in vitro DTP human cell line screen, RPMI-8226; assay type: cell-based; details: Leukemia, 1.00E−5 Molar
Description: as §1

[45] = tested on: SK-MEL-5; test: NCI in vitro DTP human cell line screen, SK-MEL-5; assay type: cell-based; details: Melanoma, 1.00E−5 Molar
Description: as §1

[46] = tested on: UACC-257; test: NCI in vitro DTP human cell line screen, UACC-257; assay type: cell-based; details: Melanoma, 1.00E−5 Molar
Description: as §1

## CCCSc1ccc2c(=O)c3ccccc3sc2c1Cl [No. 3, 4-Chloro-3-(propylthio)-9H-thioxanthen-9-one]
[1]
  Growth Percent: 67.20%
[2]
  Growth Percent: 85.71%
[3]
  Growth Percent: 98.58%
[4]
  Growth Percent: 106.97%
[5]
  Growth Percent: 97.13%
[6]
  viability: 88.9 ± 11.1%
[7]
  Growth Percent: 83.50%
[8]
  Growth Percent: 96.42%
[9]
  Growth Percent: 86.73%
[10]
  Growth Percent: 98.11%
[11]
  Growth Percent: 61.89%
[12]
  Growth Percent: 84.56%
[13]
  Growth Percent: 93.64%
[14]
  cell viabilities of A3 cell lines (MTT assay): 103 ± 10.2%
[15]; mean over all cell lines
  Growth Percent, Mean: 91.31%
[15]; summary of Table 3
  cancer types with the better inhibition effect (in words): better inhibition effect on non-small cell lung cancer
[16]
  Growth Percent: 104.52%
[17]
  Growth Percent: 94.26%
[18]
  Growth Percent: 85.72%
[19]
  Growth Percent: 91.53%
[20]
  Growth Percent: 85.29%
[21]
  Growth Percent: 82.14%
[22]
  Growth Percent: 99.45%
[23]
  Growth Percent: 94.70%
[24]
  Growth Percent: 73.74%
[25]
  Growth Percent: 75.26%
[26]
  Growth Percent: 80.72%
[27]
  Growth Percent: 103.50%
[28]
  Growth Percent: 94.52%
[29]
  Growth Percent: 87.67%
[30]
  Growth Percent: 78.97%
[31]
  Growth Percent: 92.96%
[32]
  Growth Percent: 73.70%
[33]
  Growth Percent: 104.13%
[34]
  Growth Percent: 94.29%
[35]
  Growth Percent: 94.37%
[36]
  Growth Percent: 105.09%
[37]
  Growth Percent: 91.47%
[38]
  Growth Percent: 80.00%
[39]
  Growth Percent: 118.59%
[40]
  Growth Percent: 92.63%
[41]
  Growth Percent: 91.93%
[42]
  Growth Percent: 100.70%
[43]
  cell viabilities of A control cell lines (MTT assay): 84.8 ± 2.95%
[44]
  Growth Percent: 104.20%
[45]
  Growth Percent: 98.20%
[46]
  Growth Percent: 98.85%
